Columns and labels:
[1] = test system: phosphorylated GSK3 (Ser9) in MCF7 cells; test: Cellular pGSK3 assay (pGSK3-ELISA); assay type: cell-based; conditions: Homo sapiens, 48 h, read-out: GSK3 inhibition (pGSK3-ELISA): IC50
Protocol: In order to study the cellular activity of the compounds according to the invention, an ELISA-based assay has been established for the phosphorylated glycogen synthetase kinase 3, GSK3. The assay is based on a solid phase sandwich ELISA that detects endogenous levels of the phosphorylated GSK3 (BioSource International, Inc.; Catalog #KHO0461). A phospho-GSK3 (Ser9) antibody has been coated onto the microwells. After incubation with cell lysates, the coated antibody captures the phosphorylated GSK3 protein. Following extensive washing, GSK3 polyclonal antibody is added to detect the captured phospho-GSK3 protein. HRP-linked […] antibody (anti-rabbit IgG-HRP) is then used to recognize the bound detection antibody. […]
Cells are harvested and lysed with brief vortexing in cell extraction buffer (10 mM Tris, pH 7.4, 100 mM NaCl, 1 mM EDTA, 1 mM EGTA, 1 mM NaF, 20 mM Na4P2O7, 2 mM Na3VO4, 1% Triton X-100, 10% glycerol, 0.1% SDS, 0.5% deoxycholate, 1 mM PMSF). […] The absorbance is measured at 450 nm (Wallac Victor2; Perkin Elmer, USA) within 30 minutes after adding Stop solution. The analysis of the data is performed using a statistical program (Microsoft Excel, USA) and the inhibition of pGSK3 phosphorylation is determined.

[2] = test system: phosphorylated Akt1 (Ser473) in MCF7 cells; test: Cellular PI3K/Akt pathway assay (pAkt-ELISA); assay type: cell-based; conditions: Homo sapiens, β-Heregulin (20 ng/ml) stimulation, 48 h, read-out: Akt pathway inhibition (pAkt-ELISA): IC50
Protocol: In order to study the cellular activity of the compounds according to the invention, an ELISA-based assay has been established. The assay is based on a Sandwich ELISA kit (PathScan™ Phospho-Akt1 (Ser473); Cell Signaling, USA; #7160).
The assay detects endogenous levels of phosphorylated Akt1 protein. A phospho-Akt (Ser473) antibody (Cell Signaling, USA; #9271) has been coated onto the microwells. After incubation with cell lysates, the phosphorylated Akt protein is captured by the coated antibody. Following extensive washing, Akt1 monoclonal antibody (Cell Signaling, USA; #2967) is added to detect the captured phospho-Akt1 protein. HRP-linked anti-mouse antibody (Cell Signaling, USA; #7076) is then used to recognize the bound detection antibody. […] The magnitude of optical density for this developed color is proportional to the quantity of phosphorylated Akt1 protein. […]
Cells are harvested under nondenaturating conditions and lysed with brief sonification in 1× cell lyses buffer (20 mM Tris (pH7.5), 150 mM NaCl, 1 mM ethylene diaminetetraacetate (EDTA), 1 mM ethylene glycolbis-(2-aminoethyl)-N,N,N′,N′-tetraacetic acid (EGTA), 1% Triton X-100, 2.5 mM sodium pyrophosphate, 1 mM β-glycerolphosphate, 1 mM Na3VO4, 1 μg/ml leupeptin). […] The absorbance is read at 450 nm (Wallac Victor2; Perkin Elmer, USA) within 30 minutes after adding STOP solution. […]

IC50 [1]: 10 µM
IC50 [2]: 6 µM
Compound: CC(C)(N)c1ccc(C(=O)Nc2ccc(Nc3cc(-c4cccc5c4oc4ccccc45)ncn3)cc2)cc1 [Compound 69, 4-(1-Amino-1-methyl-ethyl)-N-[4-(6-dibenzofuran-4-yl-pyrimidin-4-ylamino)-phenyl]-benzamide trifluoracetate]

Reference: patent publication US7879853B2, “4,6-disubstituted pyrimidines and their use as protein kinase inhibitors” (Bayer Schering Pharma AG, priority 2004, dated 2011)
